The text below walks through data of US12435091B2, “RNA-binding protein multimerization inhibitors and methods of use thereof” (THE UAB RESEARCH FOUNDATION, priority 2020, dated 2025).

One series concerns spinal cord injury. Put plainly: mid-thoracic contusion spinal cord injury in mice. It is filed as in vivo. The procedure: Wild-type male mice were subjected to a mid-thoracic contusion injury and then treated with SRI-42127 (15 mg/kg) every 8 hours for 4 days, starting 1 hour after injury. […] Not to be bound by theory, similar to spinal cord injury, chronic pain signaling is triggered by activation of microglia and astroglia in the spinal cord and production of inflammatory mediators (e.g. TNF-α, IL-1β, IL-6, INOS, CCL2) that induce hyperexcitation of sensory neurons in the dorsal horn. Mice underwent sciatic nerve lesioning to produce a spared nerve injury and then received SRI-42127 (15 mg/kg) or vehicle every 6 hours for 4 days (starting 1 h after injury). Mechanical sensitivity was assessed at day 7 post-injury. […] Following this test, a subset of mice in the DMSO-treated group was given an acute administration of SRI-42127 (or DMSO) and their mechanical sensitivity was tested at 30 minutes and 60 minutes post-administration. Acute treatment with SRI-42127 reversed allodynia in these mice for at least 60 minutes (p<0.01, FIG. 21, Panel D).

Another series in a line: brain tissue binding. It is filed as in vitro ADME.
Series [1] has as its system HuR cytoplasmic translocation in primary microglial cells. Put plainly: Imagestream single cell flow cytometry of HuR location in LPS-activated microglia. The note with it: 1 μM. It is filed as cell-based, mouse. The procedure: Cultured primary microglial cells isolated from neonatal mouse brain were treated with LPS to achieve activation. Cells were then treated with varying doses of SRI-42127 or vehicle. Imagestream single cell flow cytometry was used to track the location of HuR within microglial cells as depicted in FIG. 11, Panel A. DAPI was used as a flow marker for nuclear localization. For each cell, the percentage of HuR immunofluorescence that colocalized with the nuclear compartment versus the cytoplasmic compartment was quantified.
In the unstimulated state (DMSO), the characteristic nuclear predominance of HuR was observed as reflected by a low percentage of cells with high HuR in the cytoplasm. With LPS stimulation, there was an ˜8-fold increase in the percent of cells with high levels of HuR in the cytoplasm (˜60%). With SRI-42127 treatment, there was a significant dose-dependent decrease in cells with high cytoplasmic HuR. At 1 μM of SRI-42127, the percent of cells with high HuR was similar to resting (unactivated) microglia (˜10%).
In general terms: Flow cytometry measures light scatter and fluorescence of single cells or particles in a stream.

A short description of series [2]: aqueous solubility at pH 7.4. In kind it is physicochemical. To be noted: aqueous medium at pH 7.4, pH 7.4, aqueous buffer; read-out: Sol @ pH 7.4.
Description: Selected compounds were assessed for their aqueous solubility, Log D and mouse and human liver microsomal stability.
The test system of a further series is microglia. Put plainly: PrestoBlue cell viability assay in microglia. It is filed as cell-based, mouse. To be noted: tested dose range (up to 1 μM).
A further series deals with U251 cell line. Put plainly: soft agar colony formation assay. In kind it is cell-based. The note with it: 3 uM. The procedure:
(§1) The soft agar colony formation assay was performed by using 0.9% and 0.45% agarose for the bottom and the top layers, respectively; cells were incorporated in the top layer. Seaplaque low-melting temperature agarose was purchased from Lonza (Rockland, ME). Five hundred cells per well were utilized in both, the soft agar and the attached colony formation assays, which were performed in 6 well plates; cells were treated with vehicle as the control or with the desired drugs, which were administered twice per week for three weeks. The Crystal violet solution (0.1%) was utilized for colony staining in both assays. The colonies were counted after three weeks of treatment; the plate images were obtained by using Amersham Imager-600 reader (Piscataway, NJ).
(§2) Graphs in FIG. 8D illustrate the average numbers of colonies formed by established U251 and PDGx XD456 cell lines in the attached cell colony formation assay and in the soft agar colony formation assay, which represents anchorage independent cell growth.

For the next series, the system named is XD456 cell line. Put plainly: soft agar colony formation assay. In kind it is cell-based. To be noted: 3 uM. The procedure:
as §1, §2

Series [3] concerns microglial lysates (iNOS, HuR, KSRP, Arginase 1, YM1). Put plainly: Western blot analysis of microglial lysates. In kind it is cell-based, mouse. The note with it: 1.0 μM. (In general: A western blot detects proteins with antibodies after separation by electrophoresis.)
Series [4] deals with inflammatory cytokine mRNAs in astrocytes. Put plainly: inflammatory cytokine mRNAs in LPS-stimulated astrocytes. It is filed as cell-based. The procedure: Next, the impact of SRI-42127 on induction of inflammatory cytokine mRNAs as depicted in FIG. 15, Panel B was assessed. A significant 3-4-fold suppression of mRNA for IL-1β, IL-6, CXCL1, and CCL2 was observed. […] All chemokines were likewise suppressed, including KC, CCL2, CCL3, CCL4, CXCL10, from 2.5 to 8.1-fold.

For series [5], the system named is LPS-induced neuroinflammatory response in the CNS. Put plainly: in vivo LPS mouse model of neuroinflammation. On the set-up: species or system mice. The procedure: Administration of LPS intraperitoneally produces an acute neuroinflammatory response in the CNS including activation of microglia with production of inflammatory cytokines and chemokines. This model was used to test the effect of SRI-42127 on attenuating the neuroinflammatory response.
Mice were injected with LPS intraperitoneally (i.p.) and then given SRI-42127 at 15 mg/kg (or vehicle) i.p. starting at 30 min post LPS injection and then three subsequent doses at 6 hours, 12 hours, and 18 hours. Brains were harvested at 24 hours for analysis. To determine the impact of SRI-42127 on HuR localization in microglia in the brain, sections from the hippocampus from 3 vehicle control and 3 SRI-42127 treated mice were examined. Tissue sections were stained with IBA1 and HuR. Quantification methods for HuR localization were similar to immunocytochemistry. Briefly, IBA1+ cells were identified and the outline of the cell was traced with Fiji software. Nuclei were localized by DAPI staining. Nuclear and cytoplasmic HuR immunofluorescence was quantitated to calculate a N/C ratio. In vehicle-treated animals, there was translocation of HuR into the cytoplasm as indicated by a merged yellow signal whereas in SRI-42127 treated mice, there was little to no merged signal. Next, 20-30 IBA1+ cells from sections in 3 control and 3 treated mice were assessed. A 2-fold increase in the N/C ratio of mice treated with SRI-42127 was observed, confirming the effect of the drug as shown in FIG. 18 (bottom).
Next, the activation state of microglia was studied by measuring IBA1 intensity. Sections from the hippocampal region were stained with IBA1 and fluorescence intensity was measured using Fiji software from 5 sections of 3 mice per group. The reviewer was blinded to the identity of the samples.
Finally, the impact of SRI-42127 on infiltration of neutrophils and monocytes into the brain after LPS administration i.p. was assessed. Microglial HuR knockout (KO) mice were also assessed. […]

The mark [6] stands for this setting: 15 mg/kg i.p., all brain regions at 24 hours.

Values after ≈ are worked out from the molar mass of the structure shown.

As for `CN(c1ccc2ncc(-c3ccc4cn[nH]c4c3)n2n1)C1CCOCC1` [Compound 19], in the series with spinal cord injury (15 mg/kg every 8 hours for 4 days, stereology 2 weeks post injury), the “increase in surviving neurons in the epicenter of injury” value was above 2 fold. The “increase in neuronal counts by stereology” value with spinal cord injury (4 weeks post SCI (FIG. 21, Panel B)) was above 50%. The compound also displayed a brain tissue binding in the series “brain tissue binding” of 99.13%. In the series “brain tissue binding” (brain tissue, relatively low due to instability or high nonspecific binding), the recovery turned out to be 69.6%. In [1], the “percent of cells with high cytoplasmic HuR” value was around 10%. Besides, the solubility in series [2] was determined as 2.4 µM (≈ 0.836 µg/mL). Besides, the toxicity to microglia result in the series on microglia is given as “did not cause toxicity”. Also, the number of colonies is 90+70 in the series on U251 cell line and 39+6 with XD456 cell line. Besides, the “suppression of iNOS protein” value in series [3] came to 4.2 fold. Besides, the “suppression of mRNA for IL-1β, IL-6, CXCL1, and CCL2” value in series [4] is 3-4 fold. In addition, the “increase of IL-10 mRNA” value in series [4] (1.0 μM) was around 3 fold. In addition, in series [5] (15 mg/kg i.p. at 30 min, 6, 12 and 18 hours post LPS, hippocampus at 24 hours), the “increase in the HuR N/C ratio in microglia” value worked out at 2 fold. In addition, the “attenuation of infiltrating monocytes” value in series [5] (setting [6]) was 1.3- to 2 fold. Further, in series [5] (setting [6]), the “attenuation of infiltrating neutrophils” value is on record as 2 to 3 fold.
